Experimental data: the supplement of paper PMC8617591

How the values were obtained:
[1] = system: Mycobacterium tuberculosis Erdman (autoluminescent); assay: AUC25, normalised area under dose response up to IC25 (three-drug combination) (fraction (0-1)); higher = more potent at low dose
Protocol: (§1)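 DiaMOND equipotent three-drug combination dose responses (10 doses, 1.5- or 2-fold spacing, centred on IC90) against autoluminescent M. tuberculosis Erdman in 8 in vitro models. Read-out is OD600, or luminescence for the intracellular and dormancy models, normalised to untreated wells. Hill-fit Einf, AUC25 and GRinf are potency metrics; FIC50 and FIC90 are total Loewe fractional inhibitory concentrations as log2 (negative = synergy).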

[2] = system: Mycobacterium tuberculosis Erdman (autoluminescent); assay: total FIC50 (Loewe) at 50% inhibition, three-drug combination (log2); higher = more antagonistic
Protocol: as §1

[3] = system: Mycobacterium tuberculosis Erdman (autoluminescent); assay: GRinf, maximum normalised growth rate inhibition (three-drug combination) (unitless (-1 to 1)); higher = less effect (negative = killing)
Protocol: as §1

[4] = system: Mycobacterium tuberculosis Erdman (autoluminescent); assay: total FIC90 (Loewe) at 90% inhibition, three-drug combination (log2); higher = more antagonistic
Protocol: as §1

[5] = system: Mycobacterium tuberculosis Erdman (autoluminescent); assay: Einf, fitted maximum growth inhibition of three-drug combination (fraction); higher = stronger maximal inhibition
Protocol: as §1

CC(C)/N=c1\cc2n(-c3ccc(Cl)cc3)c3ccccc3nc-2cc1Nc1ccc(Cl)cc1 [clofazimine] + NNC(=O)c1ccncc1 [isoniazid] + CC(=O)NC[C@H]1CN(c2ccc(N3CCOCC3)c(F)c2)C(=O)O1 [linezolid]
Conditions | AUC25, [1] | Einf, [5] | GRinf, [3] | total FIC50, [2] | total FIC90, [4]
in vitro model: acidic pH 5.7, time point: constant (~7 days, model-specific) | 0.0908 | 0.806 | -0.134 | 0.331 | –
in vitro model: acidic pH 5.7, time point: terminal (~4-5 doublings, model-specific) | 0.0672 | 0.939 | -0.192 | 0.773 | -0.102
in vitro model: intracellular J774, time point: constant = terminal | – | 0.833 | 0.168 | – | 0.492

Conditions | AUC25, [1] | Einf, [5] | GRinf, [3] | total FIC50, [2] | total FIC90, [4]
in vitro model: butyrate, time point: constant (~7 days, model-specific) | 0.113 | 0.954 | -0.181 | 0.73 | 1.87
in vitro model: butyrate, time point: terminal (~4-5 doublings, model-specific) | 0.0763 | 0.977 | -0.106 | 0.921 | 1.01
in vitro model: cholesterol 0.05 mM, time point: constant (~7 days, model-specific) | 0.133 | 0.689 | -0.0122 | -0.374 | –
in vitro model: cholesterol 0.05 mM, time point: terminal (~4-5 doublings, model-specific) | 0.141 | 0.902 | -0.198 | 4.56 | 0.951
in vitro model: cholesterol-high 0.2 mM, time point: constant (~7 days, model-specific) | 0.124 | 0.934 | -0.48 | 0.36 | 1.56
in vitro model: cholesterol-high 0.2 mM, time point: terminal (~4-5 doublings, model-specific) | 0.109 | 1 | -0.827 | 0.186 | 0.424
in vitro model: dormancy (butyrate + nitrate, low O2), time point: constant (~7 days, model-specific) | 0.0763 | 0.914 | 0.0823 | 1.56 | 1.18
in vitro model: dormancy (butyrate + nitrate, low O2), time point: terminal (~4-5 doublings, model-specific) | 0.0355 | 0.972 | -0.074 | 1.16 | 0.734
in vitro model: standard 7H9 glycerol, time point: constant = terminal | 0.126 | 0.959 | -0.237 | 0.207 | 0.757
in vitro model: valerate, time point: constant (~7 days, model-specific) | 0.128 | 0.885 | -0.0388 | 0.318 | –
in vitro model: valerate, time point: terminal (~4-5 doublings, model-specific) | 0.0875 | 0.934 | 0.0843 | 0.0839 | 1.21

CC(C)/N=c1\cc2n(-c3ccc(Cl)cc3)c3ccccc3nc-2cc1Nc1ccc(Cl)cc1 [clofazimine] + NNC(=O)c1ccncc1 [isoniazid] + CO[C@H]1/C=C/O[C@@]2(C)Oc3c(C)c(O)c4c(O)c(c(/C=N/N5CCN(C6CCCC6)CC5)c(O)c4c3C2=O)NC(=O)/C(C)=C\C=C\[C@H](C)[C@H](O)[C@@H](C)[C@@H](O)[C@@H](C)[C@H](OC(C)=O)[C@@H]1C [rifapentine]
Conditions | AUC25, [1] | Einf, [5] | GRinf, [3] | total FIC50, [2] | total FIC90, [4]
in vitro model: acidic pH 5.7, time point: constant (~7 days, model-specific) | 0.0883 | 0.85 | -0.0449 | 0.415 | –
in vitro model: acidic pH 5.7, time point: terminal (~4-5 doublings, model-specific) | 0.09 | 0.989 | -0.185 | 0.259 | 0.468
in vitro model: intracellular J774, time point: constant = terminal | – | 0.954 | -0.131 | – | 0.169

Conditions | AUC25, [1] | Einf, [5] | GRinf, [3] | total FIC50, [2] | total FIC90, [4]
in vitro model: butyrate, time point: constant (~7 days, model-specific) | 0.0986 | 0.951 | -0.088 | 0.508 | 0.999
in vitro model: butyrate, time point: terminal (~4-5 doublings, model-specific) | 0.0792 | 0.98 | -0.0855 | 0.521 | 0.588
in vitro model: cholesterol 0.05 mM, time point: constant (~7 days, model-specific) | 0.118 | 0.666 | 0.0951 | 0.541 | –
in vitro model: cholesterol 0.05 mM, time point: terminal (~4-5 doublings, model-specific) | 0.0787 | 0.8 | -0.0213 | 1.11 | 1.88
in vitro model: cholesterol-high 0.2 mM, time point: constant (~7 days, model-specific) | 0.0889 | 0.959 | -0.471 | 0.542 | –
in vitro model: cholesterol-high 0.2 mM, time point: terminal (~4-5 doublings, model-specific) | 0.0744 | 0.999 | -0.743 | 0.993 | 0.67
in vitro model: dormancy (butyrate + nitrate, low O2), time point: constant (~7 days, model-specific) | 0.0787 | 0.9 | 0.166 | 0.0637 | -0.201
in vitro model: dormancy (butyrate + nitrate, low O2), time point: terminal (~4-5 doublings, model-specific) | 0.0623 | 0.989 | -0.337 | 0.174 | 0.32
in vitro model: standard 7H9 glycerol, time point: constant = terminal | 0.111 | 0.942 | -0.0519 | 0.0163 | 1.07
in vitro model: valerate, time point: constant (~7 days, model-specific) | 0.118 | 0.858 | 0.0326 | 0.882 | –
in vitro model: valerate, time point: terminal (~4-5 doublings, model-specific) | 0.0644 | 0.907 | 0.0296 | 0.418 | -0.138

CC(C)/N=c1\cc2n(-c3ccc(Cl)cc3)c3ccccc3nc-2cc1Nc1ccc(Cl)cc1 [clofazimine] + NNC(=O)c1ccncc1 [isoniazid] + CO[C@H]1/C=C/O[C@@]2(C)Oc3c(C)c(O)c4c(O)c(c(/C=N/N5CCN(C)CC5)c(O)c4c3C2=O)NC(=O)/C(C)=C\C=C\[C@H](C)[C@H](O)[C@@H](C)[C@@H](O)[C@@H](C)[C@H](OC(C)=O)[C@@H]1C [rifampicin]
Conditions | AUC25, [1] | Einf, [5] | GRinf, [3] | total FIC50, [2] | total FIC90, [4]
in vitro model: acidic pH 5.7, time point: constant (~7 days, model-specific) | 0.0827 | 0.859 | -0.00905 | 0.524 | –
in vitro model: acidic pH 5.7, time point: terminal (~4-5 doublings, model-specific) | 0.0711 | 0.977 | -0.102 | 0.542 | 0.223
in vitro model: intracellular J774, time point: constant = terminal | – | 0.983 | -0.28 | – | 0.112

Conditions | AUC25, [1] | Einf, [5] | GRinf, [3] | total FIC50, [2] | total FIC90, [4]
in vitro model: butyrate, time point: constant (~7 days, model-specific) | 0.107 | 0.958 | -0.146 | 0.388 | 0.605
in vitro model: butyrate, time point: terminal (~4-5 doublings, model-specific) | 0.082 | 0.978 | -0.104 | 0.318 | 0.248
in vitro model: cholesterol 0.05 mM, time point: constant (~7 days, model-specific) | 0.102 | 0.662 | 0.064 | 0.74 | –
in vitro model: cholesterol 0.05 mM, time point: terminal (~4-5 doublings, model-specific) | 0.0787 | 0.896 | 0.0504 | 1.25 | -0.29
in vitro model: cholesterol-high 0.2 mM, time point: constant (~7 days, model-specific) | 0.0653 | 0.891 | -0.205 | 0.286 | –
in vitro model: cholesterol-high 0.2 mM, time point: terminal (~4-5 doublings, model-specific) | 0.0563 | 0.996 | -0.68 | 0.929 | 0.197
in vitro model: dormancy (butyrate + nitrate, low O2), time point: constant (~7 days, model-specific) | 0.0885 | 0.876 | 0.253 | -0.0155 | -0.596
in vitro model: dormancy (butyrate + nitrate, low O2), time point: terminal (~4-5 doublings, model-specific) | 0.0839 | 0.988 | -0.19 | -0.403 | 0.28
in vitro model: standard 7H9 glycerol, time point: constant = terminal | 0.112 | 0.945 | -0.018 | -0.19 | 0.0305
in vitro model: valerate, time point: constant (~7 days, model-specific) | 0.112 | 0.866 | -0.116 | 0.565 | –
in vitro model: valerate, time point: terminal (~4-5 doublings, model-specific) | 0.0604 | 0.918 | 0.0831 | 0.286 | 0.147
